In patent US20230117034A1, “PYRAZOLOTRIAZINES” (Bayer Aktiengesellschaft, priority 2019, published 2023):

Tests used:
CDK2/CycE = target: T1, CDK2/CycE (Homo sapiens, UniProt P24941); assay: CDK2/CycE kinase assay (TR-FRET, 2 mM ATP); type: biochemical; details: 2 mM ATP (high ATP); median; read-out: CDK2/CyclinE, 2 mM ATP (high ATP), IC50 (median)
T1 construct: purchased ProQinase GmbH (Freiburg, Germany); host or cells: insect cells (Sf9)
From the text: CDK2/CycE-inhibitory activity of compounds of the present invention was quantified employing the CDK2/CycE TR-FRET assay as described in the following paragraphs.
Recombinant fusion proteins of GST and human CDK2 and of GST and human CycE, expressed in insect cells (Sf9) and purified by Glutathion-Sepharose affinity chromatography, were purchase from ProQinase GmbH (Freiburg, Germany). As substrate for the kinase reaction biotinylated peptide biotin-Ttds-YISPLKSPYKISEG (C-terminus in amid form) was used which can be purchased e.g. form the company JERINI peptide technologies (Berlin, Germany).
For the assay 50 nanoL of a 100 fold concentrated solution of the test compound in DMSO was pipetted into a black low volume 384 well microtiter plate or a black 1536 well microtiter plate (both Greiner Bio-One, Frickenhausen, Germany), 2 microL of a solution of CDK2/CycE in aqueous assay buffer [50 millimol/L Tris/HCl pH 8.0, 10 millimol/L MgCl2, 1.0 millimol/L dithiothreitol, 0.1 millimol/L sodium ortho-vanadate, 0.01% (v/v) Nonidet-P40 (Sigma)] were added and the mixture was incubated for 15 min at 22° C. to allow pre-binding of the test compounds to the enzyme before the start of the kinase reaction. Then the kinase reaction was started by the addition of 3 microL of a solution of adenosine-tri-phosphate (ATP, 3.33 millimol/L=>final conc. in the 5 microL assay volume is 2 millimol/L) and substrate (1.25 micromol/L=>final conc. in the 5 microL assay volume is 0.75 micromol/L) in assay buffer and the resulting mixture was incubated for a reaction time of 25 min at 22° C. The concentration of CDK2/CycE was adjusted depending of the activity of the enzyme lot and was chosen appropriate to have the assay in the linear range, typical concentrations were in the range of 10 ng/ml. The reaction was stopped by the addition of 3 microL of a solution of TR-FRET detection reagents (0.333 micromol/L streptavidine-XL665 [Cisbio Bioassays, Codolet, France] and 1.67 nanomol/L anti-RB(pSer807/pSer8l 1)-antibody from BD Pharmingen [#558389] and 2 nanomol/L LANCE EU-W1024 labeled anti-mouse IgG antibody [Perkin-Elmer, product no. AD0077, as an alternative a Terbium-cryptate-labeled anti-mouse IgG antibody from Cisbio Bioassays can be used]) in an aqueous EDTA-solution (167 millimol/L EDTA, 0.2% (w/v) bovine serum albumin in 100 millimol/L HEPES pH 7.5).
(§1) The resulting mixture was incubated 1 h at 22° C. to allow the formation of complex between the phosphorylated biotinylated peptide and the detection reagents. Subsequently the amount of phosphorylated substrate was evaluated by measurement of the resonance energy transfer from the Eu-chelate to the streptavidine-XL. Therefore, the fluorescence emissions at 620 nm and 665 nm after excitation at 350 nm was measured in a TR-FRET reader, e.g. a Pherastar (BMG Labtechnologies, Offenburg, Germany) or a Viewlux (Perkin-Elmer). The ratio of the emissions at 665 nm and at […] was taken as the measure for the amount of phosphorylated substrate. The data were normalised (enzyme reaction without inhibitor=0% inhibition, all other assay components but no enzyme=100% inhibition).

CDK9/CycT1 = target: T2, CDK9/CycT1 (Homo sapiens, UniProt P50750); assay: CDK9/CycT1 high ATP kinase assay (TR-FRET, 2 mM ATP); type: biochemical; details: 2 mM ATP (high ATP); median; read-out: CDK9/CyclinT1, 2 mM ATP (high ATP), IC50 (median)
T2 construct: Recombinant full-length His-tagged human CDK9 and CycT1; purchased Life Technologies PV4131; host or cells: insect cells
T2 sequence (P50750 whole entry): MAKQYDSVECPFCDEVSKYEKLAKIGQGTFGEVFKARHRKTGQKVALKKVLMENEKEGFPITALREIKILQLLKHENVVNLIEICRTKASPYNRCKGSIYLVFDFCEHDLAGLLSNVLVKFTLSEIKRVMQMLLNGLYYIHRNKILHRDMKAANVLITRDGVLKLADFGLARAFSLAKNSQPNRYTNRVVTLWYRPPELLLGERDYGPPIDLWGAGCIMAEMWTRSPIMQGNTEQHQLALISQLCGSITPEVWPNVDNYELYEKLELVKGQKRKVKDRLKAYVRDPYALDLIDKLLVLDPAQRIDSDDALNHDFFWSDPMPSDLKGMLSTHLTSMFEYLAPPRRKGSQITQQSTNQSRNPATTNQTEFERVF
T2 sequence (O60563 whole entry partner): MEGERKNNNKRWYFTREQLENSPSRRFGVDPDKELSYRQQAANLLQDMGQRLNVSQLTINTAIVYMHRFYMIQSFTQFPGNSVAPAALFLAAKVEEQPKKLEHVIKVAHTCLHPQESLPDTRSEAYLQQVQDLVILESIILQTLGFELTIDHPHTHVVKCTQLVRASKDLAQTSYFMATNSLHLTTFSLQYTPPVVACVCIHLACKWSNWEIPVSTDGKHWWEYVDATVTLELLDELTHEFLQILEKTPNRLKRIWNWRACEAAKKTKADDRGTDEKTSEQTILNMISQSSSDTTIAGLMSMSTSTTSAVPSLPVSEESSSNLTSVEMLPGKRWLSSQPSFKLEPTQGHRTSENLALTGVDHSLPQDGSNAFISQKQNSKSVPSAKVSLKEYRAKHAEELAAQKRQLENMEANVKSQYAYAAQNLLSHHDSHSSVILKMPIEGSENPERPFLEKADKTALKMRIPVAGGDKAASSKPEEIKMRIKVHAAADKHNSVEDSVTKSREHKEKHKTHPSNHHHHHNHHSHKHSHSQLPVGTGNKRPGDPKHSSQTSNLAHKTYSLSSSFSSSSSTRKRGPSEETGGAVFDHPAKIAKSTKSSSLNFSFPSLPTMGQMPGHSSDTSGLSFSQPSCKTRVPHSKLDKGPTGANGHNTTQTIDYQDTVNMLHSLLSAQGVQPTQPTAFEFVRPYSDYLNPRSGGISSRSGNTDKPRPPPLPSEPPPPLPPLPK
Protocol: CDK9/CycT1-inhibitory activity of compounds of the present invention at a high ATP concentration after preincubation of enzyme and test compounds was quantified employing the CDK9/CycT1 TR-FRET assay as described in the following paragraphs.
Recombinant full-length His-tagged human CDK9 and CycT1, expressed in insect cells and purified by Ni-NTA affinity chromatography, were purchased from Life Technologies (Cat. No PV4131). As substrate for the kinase reaction biotinylated peptide biotin-Ttds-[…] (C-terminus in amide form) was used which can be purchased e.g. form the company JERINI peptide technologies (Berlin, Germany).
For the assay 50 nanoL of a 100 fold concentrated solution of the test compound in DMSO was pipetted into either a black low volume 384 well microtiter plate or a black 1536 well microtiter plate (both Greiner Bio-One, Frickenhausen, Germany), 2 microL of a solution of CDK9/CycT1 in aqueous assay buffer [50 millimol/L Tris/HCl pH 8.0, 10 millimol/L MgCl2, 1.0 millimol/L dithiothreitol, 0.1 millimol/L sodium ortho-vanadate, 0.01% (v/v) Nonidet-P40 (Sigma)] were added and the mixture was incubated for 15 min at 22° C. to allow pre-binding of the test compounds to the enzyme before the start of the kinase reaction. […] The concentration of CDK9/CycT1 was adjusted depending of the activity of the enzyme lot and was chosen appropriate to have the assay in the linear range, typical concentrations were in the range of 0.5 microg/ml.
as §1, with “substrate.” for “substrate. The data were normalised (enzyme reaction without inhibitor=0% inhibition, all other assay components but no enzyme=100% inhibition).”

[1] = tested on: BRCA1 mRNA expression in MDA-MB-231 cells; assay: qRT-PCR assay: BRCA1 mRNA expression in MDA-MB-231; type: cell-based, human; details: Homo sapiens, MDA-MB-231, Inhibition of BRCA1 mRNA expression in MDA-MB-231 cells; median; read-out: RTqPCR-MDA-MB-231, IC50, BRCA1 (median)
Protocol: 3. qRT-PCR Assay: BRCA, ATR, MCL1 in MDA-MB-231, CAL-120
Tissue cultured human MDA-MB-231 human breast cancer cells were plated in 500 microL per well at 200,000 cells/well in a 24 well microtiter plate. After 24 h, the cells were exposed continuously for 24 h to test substances (substances were added with Tecan HP 0300 Dispenser). RNA was prepared using Qiagen RNeasy MiniKit (#74106), RNA was quantified using a NanoDrop Equipment, and 600 nano gamms of RNA was coverted to cDNA using a SuperScript VILO kit (Thermofisher #11755050) followed by qPCR amplification. BRCA1 and ATR gene expression was measured by RT-qPCR and normalised to GAPDH housekeeping gene expression. qPCR primer sets have been purchased from Thermo Fisher Scientific/Applied Biosystems: BRCA1, #Hs 01556193; ATR, #Hs 00992123; GAPDH, #Hs 03929097.

Structure (SMILES) | IC50 (CDK2/CycE) [µM] | IC50 (CDK9/CycT1) [µM] | IC50 [1] [µM]
Fc1cc(F)cc(-c2nnc(CNc3nc(N4CCOCC4)nc4c(Br)cnn34)[nH]2)c1 [Example 105, 8-bromo-N-{[5-(3,5-difluorophenyl)-4H-1,2,4-triazol-3-yl]methyl}-2-(morpholin-4-yl)pyrazolo[1,5-a][1,3,5]triazin-4-amine] | 0.826 | 0.613 | 0.00843
CN1CCN(c2nc(NCc3nc4cc(F)ccc4[nH]3)n3ncc(Br)c3n2)CC1 [Example 134, 8-bromo-N-[(5-fluoro-1H-benzimidazol-2-yl)methyl]-2-(4-methylpiperazin-1-yl)pyrazolo[1,5-a][1,3,5]triazin-4-amine] | 12 | > 20 | 0.0055
Brc1cnn2c(NCc3nc4ccccc4[nH]3)nc(N3CCNCC3)nc12 [Example 128, N-[(1H-benzimidazol-2-yl)methyl]-8-bromo-2-(piperazin-1-yl)pyrazolo[1,5-a][1,3,5]triazin-4-amine] | 9.63 | > 20 | 0.0146
CN1CCN(c2nc(NCc3nc4cc(F)ccc4[nH]3)n3ncc(C4CC4)c3n2)CC1 [Example 164, 8-cyclopropyl-N-[(5-fluoro-1H-benzimidazol-2-yl)methyl]-2-(4-methylpiperazin-1-yl)pyrazolo[1,5-a][1,3,5]triazin-4-amine] | > 20 | > 20 | 0.00255
N=S1(=O)CCN(c2nc(NCc3nc4ccccc4[nH]3)n3ncc(Br)c3n2)CC1 [Example 145, 4-(4-{[(1H-benzimidazol-2-yl)methyl]amino}-8-bromopyrazolo[1,5-a][1,3,5]triazin-2-yl)-1-imino-1lambda^6-thiomorpholin-1-one] | 6.14 | > 20 | 0.19
Cc1cccc2[nH]c(CNc3nc(N4CCN(C)CC4)nc4c(Br)cnn34)nc12 [Example 151, 8-bromo-N-[(4-methyl-1H-benzimidazol-2-yl)methyl]-2-(4-methylpiperazin-1-yl)pyrazolo[1,5-a][1,3,5]triazin-4-amine] | 13.4 | > 20 | 0.0183
CC(C)c1cnn2c(NCc3nc4ccccc4[nH]3)nc(N3CCCOCC3)nc12 [Example 8, N-[(1H-benzimidazol-2-yl)methyl]-2-(1,4-oxazepan-4-yl)-8-(propan-2-yl)pyrazolo[1,5-a][1,3,5]triazin-4-amine] | 11.1 | > 20 | 0.0937
C[C@@H]1CN(c2nc(NCc3nc4ccccc4[nH]3)n3ncc(Br)c3n2)CCN1C [Example 135, N-[(1H-benzimidazol-2-yl)methyl]-8-bromo-2-[(3R)-3,4-dimethylpiperazin-1-yl]pyrazolo[1,5-a][1,3,5]triazin-4-amine] | 7.75 | > 20 | 0.03
CN1CCN(c2nc(NCc3nc4c(F)c(F)ccc4[nH]3)n3ncc(Br)c3n2)CC1 [Example 133, 8-bromo-N-[(4,5-difluoro-1H-benzimidazol-2-yl)methyl]-2-(4-methylpiperazin-1-yl)pyrazolo[1,5-a][1,3,5]triazin-4-amine] | 15.1 | > 20 | 0.00423
C[C@H]1CN(c2nc(NCc3nnc(-c4cccc(F)c4)[nH]3)n3ncc(Br)c3n2)CCN1C [Example 154, 8-bromo-2-[(3S)-3,4-dimethylpiperazin-1-yl]-N-{[5-(3-fluorophenyl)-4H-1,2,4-triazol-3-yl]methyl}pyrazolo[1,5-a][1,3,5]triazin-4-amine] | 4.47 | 2.56 | 0.00704
Brc1cnn2c(NCc3nc4ccccc4[nH]3)nc(N3CCN4CCC[C@@H]4C3)nc12 [Example 149, N-[(1H-benzimidazol-2-yl)methyl]-8-bromo-2-[(8aR)-hexahydropyrrolo[1,2-a]pyrazin-2 (1 H)-yl]pyrazolo[1,5-a][1,3,5]triazin-4-amine] | 6.38 | > 20 | 0.148
[O-][S+]1CCN(c2nc(NCc3nc4ccccc4[nH]3)n3ncc(Br)c3n2)CC1 [Example 144, 4-(4-{[(1H-benzimidazol-2-yl)methyl]amino}-8-bromopyrazolo[1,5-a][1,3,5]triazin-2-yl)-1lambda^4-thiomorpholin-1-one] | 7.81 | > 20 | 0.0833
Clc1ccc2[nH]c(CNc3nc(N4CCOCC4)nc4c(Br)cnn34)nc2c1 [Example 162, 8-bromo-N-[(5-chloro-1H-benzimidazol-2-yl)methyl]-2-(morpholin-4-yl)pyrazolo[1,5-a][1,3,5]triazin-4-amine] | 4.63 | 17.4 | 0.00109
Cc1ccc(-c2nnc(CNc3nc(N4CCOCC4)nc4c(Br)cnn34)[nH]2)cc1F [Example 98, 8-bromo-N-{[5-(3-fluoro-4-methylphenyl)-4H-1,2,4-triazol-3-yl]methyl}-2-(morpholin-4-yl)pyrazolo[1,5-a][1,3,5]triazin-4-amine] | 2.03 | 0.953 | 0.0788
C[C@@H]1CN(c2nc(NCc3nnc(-c4ccccc4)[nH]3)n3ncc(Br)c3n2)CCN1C.O=CO [Example 130, 8-bromo-2-[(3R)-3,4-dimethylpiperazin-1-yl]-N-[(5-phenyl-4H-1,2,4-triazol-3-yl)methyl]pyrazolo[1,5-a][1,3,5]triazin-4-amine formate] | 8.15 | 4.86 | 0.0376
